Data reported in the supplement of paper PMC10307832.

How the values were obtained:
Experiment in all cases: relative viability (nuclei count vs DMSO), 5 days (fraction); higher = more cells survive
[1] = compound: C1COCCN1CC2=CC(=O)C(=CO2)OCCCCCSC3=C4C=CC(=CC4=NC=C3)C(F)(F)F [EHT 1864] + CC(=O)c1c(C)c2cnc(Nc3ccc(N4CCNCC4)cn3)nc2n(C2CCCC2)c1=O [Palbociclib] (partner 0.5 µM)
Outline: (§1)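 Lung cancer cell lines were pin-tool dosed in 1536-well plates on the day after seeding, with either a lone drug or a fixed anchor-drug dose plus five library-drug doses (not always all listed) in √10 steps. Nuclei were counted on 4× images after 5 days. Relative viability is the ratio of treated-well to vehicle-well nuclei counts, with each value a median of duplicate plates.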

[2] = compound: C1COCCN1CC2=CC(=O)C(=CO2)OCCCCCSC3=C4C=CC(=CC4=NC=C3)C(F)(F)F [EHT 1864] + CCNC(=O)c1noc(-c2cc(C(C)C)c(O)cc2O)c1-c1ccc(CN2CCOCC2)cc1 [Luminespib] (partner 0.01 µM)
Outline: as §1

[3] = compound: C1COCCN1CC2=CC(=O)C(=CO2)OCCCCCSC3=C4C=CC(=CC4=NC=C3)C(F)(F)F [EHT 1864] + COc1cccc2cc(-c3nc([C@H]4CC[C@H](C(=O)O)CC4)n4ncnc(N)c34)[nH]c12 [OSI-027] (partner 0.5 µM)
Outline: as §1

[4] = compound: C1COCCN1CC2=CC(=O)C(=CO2)OCCCCCSC3=C4C=CC(=CC4=NC=C3)C(F)(F)F [EHT 1864] + CS(=O)(=O)N1CCN(Cc2cc3nc(-c4cccc5[nH]ncc45)nc(N4CCOCC4)c3s2)CC1 [Pictilisib] (partner 1 µM)
Outline: as §1

Cell Line	relative viability ([1]; first compound 0.04 µM)	relative viability ([1]; first compound 0.1265 µM)	relative viability ([1]; first compound 0.4 µM)	relative viability ([1]; first compound 1.265 µM)	relative viability ([1]; first compound 4 µM)	relative viability ([2]; first compound 0.04 µM)	relative viability ([2]; first compound 0.1265 µM)	relative viability ([2]; first compound 0.4 µM)	relative viability ([2]; first compound 1.265 µM)	relative viability ([2]; first compound 4 µM)	relative viability ([3]; first compound 0.04 µM)	relative viability ([3]; first compound 0.1265 µM)	relative viability ([3]; first compound 0.4 µM)	relative viability ([3]; first compound 1.265 µM)	relative viability ([3]; first compound 4 µM)	relative viability ([4]; first compound 0.04 µM)	relative viability ([4]; first compound 0.1265 µM)	relative viability ([4]; first compound 0.4 µM)	relative viability ([4]; first compound 1.265 µM)	relative viability ([4]; first compound 4 µM)
LCLC-103H	0.506	0.393	0.504	0.467	0.498	0.874	0.798	0.932	0.975	0.919	0.454	0.365	0.461	0.44	0.413	0.656	0.482	0.667	0.661	0.547
LOU-NH91	0.512	0.524	0.53	0.495	0.589	0.345	0.345	0.342	0.294	0.32	0.721	0.572	0.768	0.777	0.66	0.537	0.507	0.559	0.527	0.514
NCI-H1650	0.375	0.31	0.273	0.378	0.277			0.203	0.201	0.198			0.599	0.638	0.611	0.597	0.351	0.579	0.548	0.442
NCI-H3122	0.172	0.21	0.211	0.203	0.201	0.102	0.0742	0.089	0.101	0.102	0.922	0.594	0.952	0.896	0.956	0.564	0.428	0.583	0.617	0.675
PC-3 [JPC-3]	0.549	0.554	0.539	0.545	0.57	0.742	0.695	0.664	0.673	0.696	0.743	0.575	0.742	0.732	0.646	0.816	0.577	0.853	0.928	0.657
NCI-H1651	0.529	0.501	0.534	0.504	0.522	0.694	0.907	0.803	0.704	0.57	0.704	0.675	0.75	0.647	0.69	0.537	0.562	0.555	0.563	0.492
NCI-H2087	0.266		0.223	0.156	0.224	0.175		0.143	0.168	0.135	0.496		0.578	0.496	0.586	0.942	0.698	0.952	0.72	0.97
